# Molecular target: Inositol-trisphosphate 3-kinase A (Rattus norvegicus, UniProt P17105)
# Assay: Binding affinity against recombinant plasmid rat brain IP3K by overexpressing in Escherichia coli
# Sequence of Inositol-trisphosphate 3-kinase A (P17105 whole entry): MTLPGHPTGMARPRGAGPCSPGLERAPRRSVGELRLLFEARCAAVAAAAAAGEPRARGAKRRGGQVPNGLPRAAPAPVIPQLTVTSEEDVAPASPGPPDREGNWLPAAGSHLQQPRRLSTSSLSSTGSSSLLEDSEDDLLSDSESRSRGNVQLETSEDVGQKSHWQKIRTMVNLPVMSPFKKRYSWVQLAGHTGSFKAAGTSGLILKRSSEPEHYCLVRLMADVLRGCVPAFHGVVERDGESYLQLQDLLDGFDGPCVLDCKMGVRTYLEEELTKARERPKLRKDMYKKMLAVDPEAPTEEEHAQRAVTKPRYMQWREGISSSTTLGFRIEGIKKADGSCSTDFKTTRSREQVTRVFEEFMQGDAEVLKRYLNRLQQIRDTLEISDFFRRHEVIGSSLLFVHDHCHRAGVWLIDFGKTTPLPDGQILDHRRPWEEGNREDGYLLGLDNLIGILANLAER
row,SMILES,IC50 [µM]
1,O=P(O)(O)O[C@H]1[C@H](OP(=O)(O)O)[C@@H](OP(=O)(O)O)[C@H](O)[C@@H](O)[C@H]1OP(=O)(O)O,> 100
2,"O=P(O)(O)O[C@@H]1[C@H](O)[C@H](O)[C@@H](OP(=O)(O)O)[C@H](OP(=O)(O)O)[C@H]1O (stereo in doubt; form 1) [INS(1,4,5)P3]",2.6
3,"O=P(O)(O)O[C@@H]1[C@H](O)[C@H](O)[C@@H](OP(=O)(O)O)[C@H](OP(=O)(O)O)[C@H]1O (stereo in doubt; form 2) [INS(1,4,5)P3]",6.3
4,O=P(O)(O)O[C@H]1[C@H](O)[C@@H](OP(=O)(O)O)[C@H](OP(=O)(O)O)[C@@H](OP(=O)(O)O)[C@H]1O,27.8
5,O=P(O)(O)O[C@H]1[C@H](O)[C@@H](OP(=O)(O)O)[C@H](O)[C@@H](OP(=O)(O)O)[C@H]1O,90
6,O=P(O)(O)O[C@H]1[C@H](OP(=O)(O)O)[C@H](OP(=O)(O)O)[C@H](O)[C@@H](O)[C@H]1OP(=O)(O)O,> 100

# The remaining compounds from weak to strong by IC50, led by results:
row,IC50 [µM],SMILES
1,43.7,"O=P(O)(O)O[C@@H]1[C@H](O)[C@H](O)[C@@H](OP(=O)(O)O)[C@H](OP(=O)(O)O)[C@H]1O (stereo in doubt; form 3) [INS(1,4,5)P3]"
2,39.4,O=P(O)(O)O[C@H]1[C@@H](O)[C@@H](OP(=O)(O)O)[C@H](OP(=O)(O)O)[C@@H](OP(=O)(O)O)[C@@H]1O
3,27.4,O=P(O)(O)O[C@H]1[C@H](OP(=O)(O)O)[C@H](O)[C@H](O)[C@@H](O)[C@@H]1OP(=O)(O)O

# Source: ChEMBL document CHEMBL1136196, “Synthesis of three enantiomeric pairs of scyllo-inositol phosphate and molecular interactions between all possible regioisomers of scyllo-inositol phosphate and inositol 1,4,5-trisphosphate 3-kinase” (Bioorg Med Chem Lett, 2003)
